Test results: ChEMBL document CHEMBL1201862, “PubChem BioAssay data set” (2004)
The source made the active and inactive calls.

Assays:
SUMO-activating enzyme [1] = target: T1, SUMO-activating enzyme (Homo sapiens, UniProt Q9UBT2); assay: inhibitors of in vitro SUMOylation cascade, primary screen, biochemical, HTRF, uHTS (AID 2006); type: protein-complex assay
Hexokinase HKDC1 = target: T2, Hexokinase HKDC1 (Homo sapiens, UniProt Q2TB90); assay: HKDC1 hexokinase activators, dose response, biochemical, W721R variant (AID 504730); type: functional
T2 sequence (Q2TB90 whole entry): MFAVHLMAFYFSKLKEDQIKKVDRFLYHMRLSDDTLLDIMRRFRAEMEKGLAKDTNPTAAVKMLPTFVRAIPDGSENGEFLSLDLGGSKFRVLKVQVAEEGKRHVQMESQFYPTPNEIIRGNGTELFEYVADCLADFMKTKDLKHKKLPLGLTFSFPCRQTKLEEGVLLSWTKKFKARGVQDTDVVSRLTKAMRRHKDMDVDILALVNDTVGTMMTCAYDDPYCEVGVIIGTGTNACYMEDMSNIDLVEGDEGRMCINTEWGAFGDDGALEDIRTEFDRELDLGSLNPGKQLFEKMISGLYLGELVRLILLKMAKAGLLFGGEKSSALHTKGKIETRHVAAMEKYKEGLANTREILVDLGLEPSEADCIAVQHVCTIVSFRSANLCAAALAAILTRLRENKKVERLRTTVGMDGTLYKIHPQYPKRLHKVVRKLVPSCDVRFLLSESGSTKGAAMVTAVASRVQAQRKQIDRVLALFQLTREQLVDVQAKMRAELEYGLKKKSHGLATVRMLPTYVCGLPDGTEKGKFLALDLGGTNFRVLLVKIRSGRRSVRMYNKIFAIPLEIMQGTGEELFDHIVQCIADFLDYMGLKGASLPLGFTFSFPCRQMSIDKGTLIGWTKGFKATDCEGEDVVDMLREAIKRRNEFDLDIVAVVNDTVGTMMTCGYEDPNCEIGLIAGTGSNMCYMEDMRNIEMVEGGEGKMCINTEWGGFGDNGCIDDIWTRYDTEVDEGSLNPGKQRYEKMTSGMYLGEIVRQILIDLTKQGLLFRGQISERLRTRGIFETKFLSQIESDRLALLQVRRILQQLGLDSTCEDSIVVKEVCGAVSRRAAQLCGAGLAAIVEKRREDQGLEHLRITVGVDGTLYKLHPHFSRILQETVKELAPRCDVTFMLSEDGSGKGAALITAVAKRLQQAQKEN

SUMO-activating enzyme [2] = target: T1, SUMO-activating enzyme; assay: SUMOylation inhibitor hit validation, confirmation, SUMOylation inhibitor project, biochemical, AlphaScreen (AID 2018); type: functional
[3] = target: T3, Voltage-gated N-type calcium channel alpha-1B subunit/Amyloid beta A4 precursor protein-binding family A member 1 (Homo sapiens, UniProt Q00975+Q02410); type: protein assay
T3 sequence (Q00975 whole entry): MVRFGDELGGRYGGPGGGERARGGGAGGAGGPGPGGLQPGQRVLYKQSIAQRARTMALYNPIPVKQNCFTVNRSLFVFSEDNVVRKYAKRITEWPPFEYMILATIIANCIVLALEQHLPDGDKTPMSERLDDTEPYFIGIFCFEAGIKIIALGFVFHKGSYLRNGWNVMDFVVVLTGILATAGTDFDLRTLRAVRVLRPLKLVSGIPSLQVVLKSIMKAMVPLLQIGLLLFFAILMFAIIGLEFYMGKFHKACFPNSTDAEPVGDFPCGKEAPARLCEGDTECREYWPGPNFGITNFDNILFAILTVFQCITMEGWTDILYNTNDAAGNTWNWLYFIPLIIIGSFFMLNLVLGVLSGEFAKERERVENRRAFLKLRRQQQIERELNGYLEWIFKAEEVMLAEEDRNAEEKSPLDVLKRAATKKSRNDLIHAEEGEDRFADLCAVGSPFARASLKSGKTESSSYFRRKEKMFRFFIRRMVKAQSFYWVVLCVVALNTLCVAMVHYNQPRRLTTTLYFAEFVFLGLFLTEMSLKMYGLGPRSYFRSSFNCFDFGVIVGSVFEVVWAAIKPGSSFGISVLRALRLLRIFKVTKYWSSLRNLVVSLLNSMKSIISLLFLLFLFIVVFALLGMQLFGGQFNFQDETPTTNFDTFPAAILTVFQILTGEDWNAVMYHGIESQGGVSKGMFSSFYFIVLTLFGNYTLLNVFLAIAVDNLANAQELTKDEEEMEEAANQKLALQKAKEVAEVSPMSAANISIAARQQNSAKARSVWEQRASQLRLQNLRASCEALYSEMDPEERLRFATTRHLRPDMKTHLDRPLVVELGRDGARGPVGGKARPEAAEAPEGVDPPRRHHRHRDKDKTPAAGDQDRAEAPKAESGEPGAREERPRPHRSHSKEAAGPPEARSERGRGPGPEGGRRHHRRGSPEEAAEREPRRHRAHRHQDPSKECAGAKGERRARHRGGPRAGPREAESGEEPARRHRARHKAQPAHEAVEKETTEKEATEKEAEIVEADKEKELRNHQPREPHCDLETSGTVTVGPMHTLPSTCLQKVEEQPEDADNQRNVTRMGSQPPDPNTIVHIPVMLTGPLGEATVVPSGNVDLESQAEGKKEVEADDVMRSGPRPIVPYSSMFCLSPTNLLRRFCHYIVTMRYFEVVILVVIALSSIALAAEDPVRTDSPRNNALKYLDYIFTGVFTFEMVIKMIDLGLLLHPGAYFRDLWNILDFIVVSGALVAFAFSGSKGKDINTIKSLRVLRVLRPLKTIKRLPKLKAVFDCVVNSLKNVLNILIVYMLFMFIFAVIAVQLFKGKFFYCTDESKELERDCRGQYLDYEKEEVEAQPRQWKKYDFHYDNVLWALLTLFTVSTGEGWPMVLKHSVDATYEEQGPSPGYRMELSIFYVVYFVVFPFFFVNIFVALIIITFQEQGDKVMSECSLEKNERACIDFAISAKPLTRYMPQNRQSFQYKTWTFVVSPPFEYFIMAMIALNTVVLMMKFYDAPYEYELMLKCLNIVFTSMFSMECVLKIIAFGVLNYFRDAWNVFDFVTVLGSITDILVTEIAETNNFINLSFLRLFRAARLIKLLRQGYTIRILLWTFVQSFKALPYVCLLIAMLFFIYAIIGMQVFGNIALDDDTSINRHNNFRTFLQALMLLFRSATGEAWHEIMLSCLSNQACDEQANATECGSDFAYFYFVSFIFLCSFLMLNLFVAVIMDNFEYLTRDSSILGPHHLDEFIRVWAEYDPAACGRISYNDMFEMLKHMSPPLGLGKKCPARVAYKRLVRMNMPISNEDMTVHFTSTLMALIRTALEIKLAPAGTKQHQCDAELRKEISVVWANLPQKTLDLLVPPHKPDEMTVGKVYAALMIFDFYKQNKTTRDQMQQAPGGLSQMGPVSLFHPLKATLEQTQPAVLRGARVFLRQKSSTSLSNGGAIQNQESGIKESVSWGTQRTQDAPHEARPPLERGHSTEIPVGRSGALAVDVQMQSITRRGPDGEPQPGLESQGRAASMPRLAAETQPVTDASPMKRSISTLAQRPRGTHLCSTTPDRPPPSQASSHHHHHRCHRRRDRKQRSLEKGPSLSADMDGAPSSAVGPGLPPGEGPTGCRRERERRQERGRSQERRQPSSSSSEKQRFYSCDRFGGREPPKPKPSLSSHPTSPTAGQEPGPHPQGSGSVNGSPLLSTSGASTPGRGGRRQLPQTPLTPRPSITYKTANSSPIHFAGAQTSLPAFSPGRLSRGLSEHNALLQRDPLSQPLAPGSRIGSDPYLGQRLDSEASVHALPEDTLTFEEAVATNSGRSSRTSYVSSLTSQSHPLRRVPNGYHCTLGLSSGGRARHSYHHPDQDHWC
T3 sequence (Q02410 whole entry): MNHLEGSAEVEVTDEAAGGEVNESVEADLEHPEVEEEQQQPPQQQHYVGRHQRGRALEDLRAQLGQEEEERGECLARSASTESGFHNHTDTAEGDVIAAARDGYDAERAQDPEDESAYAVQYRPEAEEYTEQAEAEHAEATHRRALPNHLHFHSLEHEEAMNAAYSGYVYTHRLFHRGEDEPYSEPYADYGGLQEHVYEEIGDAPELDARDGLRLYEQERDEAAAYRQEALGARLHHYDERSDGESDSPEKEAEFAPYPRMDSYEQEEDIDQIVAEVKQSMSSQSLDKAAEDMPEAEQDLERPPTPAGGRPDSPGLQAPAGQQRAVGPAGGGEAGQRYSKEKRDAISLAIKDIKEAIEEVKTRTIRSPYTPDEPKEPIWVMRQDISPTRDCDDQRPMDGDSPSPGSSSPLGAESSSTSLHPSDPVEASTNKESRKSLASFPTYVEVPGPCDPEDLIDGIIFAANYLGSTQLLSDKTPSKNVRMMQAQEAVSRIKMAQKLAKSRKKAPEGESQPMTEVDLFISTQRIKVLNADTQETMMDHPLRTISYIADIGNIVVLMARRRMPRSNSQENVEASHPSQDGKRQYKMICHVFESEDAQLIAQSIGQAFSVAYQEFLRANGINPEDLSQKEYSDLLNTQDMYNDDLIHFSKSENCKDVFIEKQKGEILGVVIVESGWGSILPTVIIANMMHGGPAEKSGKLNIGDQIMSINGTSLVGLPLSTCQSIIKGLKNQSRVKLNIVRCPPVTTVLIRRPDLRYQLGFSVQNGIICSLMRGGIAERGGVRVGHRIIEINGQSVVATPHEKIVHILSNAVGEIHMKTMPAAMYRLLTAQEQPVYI

[4] = target: T3, Voltage-gated N-type calcium channel alpha-1B subunit/Amyloid beta A4 precursor protein-binding family A member 1; type: protein assay; remark: listed apart in the source
[5] = target: Intestinal-type alkaline phosphatase (Homo sapiens, UniProt P09923); assay: inhibition of human intestinal alkaline phosphatase – biochemical, dose response (AID 488876); type: functional
[6] = target: Intestinal-type alkaline phosphatase (Mus musculus, UniProt P24822); assay: PubChem AID 488785; type: functional
[7] = target: T4, Alkaline phosphatase, tissue-nonspecific isozyme (Homo sapiens, UniProt P05186); assay: TNAP enzyme inhibition by screening hits, dose response, selectivity assay for mouse IAP inhibitor project, biochemical, human TNAP, uHTS hits (AID 488906); type: functional
T4 sequence (P05186 whole entry): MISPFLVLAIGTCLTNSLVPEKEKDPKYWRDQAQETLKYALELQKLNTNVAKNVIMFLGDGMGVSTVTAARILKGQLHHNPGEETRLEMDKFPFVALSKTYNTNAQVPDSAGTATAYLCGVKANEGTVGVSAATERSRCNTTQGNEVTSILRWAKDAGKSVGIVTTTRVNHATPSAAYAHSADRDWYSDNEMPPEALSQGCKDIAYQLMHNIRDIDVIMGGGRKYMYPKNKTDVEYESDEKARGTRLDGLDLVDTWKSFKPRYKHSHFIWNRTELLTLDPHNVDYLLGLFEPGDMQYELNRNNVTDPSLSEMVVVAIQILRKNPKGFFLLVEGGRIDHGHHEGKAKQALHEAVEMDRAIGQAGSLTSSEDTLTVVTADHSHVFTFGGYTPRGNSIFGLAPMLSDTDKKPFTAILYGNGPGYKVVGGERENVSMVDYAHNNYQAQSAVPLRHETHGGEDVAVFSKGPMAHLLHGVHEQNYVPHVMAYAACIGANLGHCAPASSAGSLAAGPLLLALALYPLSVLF

Tumor necrosis factor = Tumor necrosis factor (Homo sapiens, UniProt P01375); assay: TNFa-triggered NF-kB activation inhibitors, SAR follow-up, cell-based, set 3 (AID 2801); type: functional
Chain of Tumor necrosis factor (P01375 whole entry): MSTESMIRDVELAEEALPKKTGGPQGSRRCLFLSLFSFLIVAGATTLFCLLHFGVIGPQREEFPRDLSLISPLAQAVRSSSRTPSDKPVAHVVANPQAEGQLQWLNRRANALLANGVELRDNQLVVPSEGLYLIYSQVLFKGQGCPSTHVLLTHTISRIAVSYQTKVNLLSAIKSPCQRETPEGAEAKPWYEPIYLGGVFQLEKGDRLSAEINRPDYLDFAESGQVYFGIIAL

HEK293 = assay: SAR analysis of compounds that are cytotoxic to HEK293 - Set 3. [Related pubchem assays (depositor defined):AID1575, AID1578, AID1848, AID1849, AID2001, AID2333, AID2334, AID2335, AID2337, AID2469]; type: functional, cell-based; conditions: Homo sapiens
[8] = target: Nucleotide-binding oligomerization domain-containing protein 2 (Homo sapiens, UniProt Q9HC29); assay: NOD2 signaling inhibitors, analog potency, SAR follow-up, cell-based, set 3 (AID 2799); type: functional
[9] = target: Nucleotide-binding oligomerization domain-containing protein 1 (Homo sapiens, UniProt Q9Y239); assay: SAR analysis of compounds that inhibit NOD1 - Set 3. [Related pubchem assays (depositor defined):AID1566, AID1575, AID1578, AID1849, AID1852, AID2333, AID2335, AID2466]; type: functional
Bcl-2-related protein A1 [10] = target: T5, Bcl-2-related protein A1 (Mus musculus, UniProt Q07440); assay: Bfl-1 inhibitors blocking BH3 peptide binding, confirmation, biochemical, TR-FRET, mouse Bfl-1 (AID 621);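 note: TR-FRET binding of GST-Bfl-1 to FITC-labelled Bid peptide via terbium antibody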
T5 sequence (Q07440 whole entry): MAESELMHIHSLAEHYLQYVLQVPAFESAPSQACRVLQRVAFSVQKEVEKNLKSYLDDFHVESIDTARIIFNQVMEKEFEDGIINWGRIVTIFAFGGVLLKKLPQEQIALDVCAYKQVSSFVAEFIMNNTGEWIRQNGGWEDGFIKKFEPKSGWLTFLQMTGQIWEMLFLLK

[11] = target: Glyceraldehyde-3-phosphate dehydrogenase (Homo sapiens, UniProt P04406)
Bcl-2-related protein A1 [12] = target: T5, Bcl-2-related protein A1; assay: Bfl-1 binding inhibitors, SAR follow-up, biochemical, fluorescence polarization (AID 1070)
[13] = target: T6, Dual specificity protein phosphatase 3 (Homo sapiens, UniProt P51452); assay: VHR1 phosphatase inhibitors, primary screen, biochemical, absorbance, uHTS (AID 1654)
T6 sequence (P51452 whole entry): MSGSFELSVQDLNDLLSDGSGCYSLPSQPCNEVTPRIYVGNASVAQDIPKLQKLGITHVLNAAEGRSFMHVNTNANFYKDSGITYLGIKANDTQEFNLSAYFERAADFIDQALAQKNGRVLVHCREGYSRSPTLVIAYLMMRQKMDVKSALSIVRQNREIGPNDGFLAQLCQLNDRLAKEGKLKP

[14] = target: T6, Dual specificity protein phosphatase 3; assay: VHR1 phosphatase inhibitors, biochemical (AID 1878)
[15] = target: Dual specificity protein phosphatase 6 (Rattus norvegicus, UniProt Q64346); assay: MKP-3 phosphatase inhibitors, primary screen, biochemical, rat enzyme, in vitro (AID 425)
[16] = target: Voltage-dependent T-type calcium channel subunit alpha-1H (Homo sapiens, UniProt O95180); assay: Cav3.2 T-type channel blockers, cell-based, SynthLib3 library, HEK293 Cav3.2, fluorescence (AID 493041); type: functional
[17] = mammalian cell cytotoxicity, dose response, cytotoxicity control, plate reader, cherry-pick samples (AID 504397); type: functional, cell-based
CAAX prenyl protease 2 = CAAX prenyl protease 2 (Saccharomyces cerevisiae S288c, UniProt Q03530); type: biochemical
[18] = target: T7, Kappa-type opioid receptor (Homo sapiens, UniProt P41145); assay: KOR agonist analogs, arrestin-GFP redistribution, SAR follow-up, imaging, image-based, set 3 (AID 488833); type: functional
T7 sequence (P41145 whole entry): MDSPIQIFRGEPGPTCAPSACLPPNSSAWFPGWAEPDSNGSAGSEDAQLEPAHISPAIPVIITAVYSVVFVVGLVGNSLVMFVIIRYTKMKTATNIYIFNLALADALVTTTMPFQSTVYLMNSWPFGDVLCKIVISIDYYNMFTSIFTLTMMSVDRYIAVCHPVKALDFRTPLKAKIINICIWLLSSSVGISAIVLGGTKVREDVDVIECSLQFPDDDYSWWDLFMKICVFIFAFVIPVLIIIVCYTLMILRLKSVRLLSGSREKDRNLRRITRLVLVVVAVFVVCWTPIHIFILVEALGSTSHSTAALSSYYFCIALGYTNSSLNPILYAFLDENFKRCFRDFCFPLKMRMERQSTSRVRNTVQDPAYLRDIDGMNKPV

[19] = target: Delta-type opioid receptor (Homo sapiens, UniProt P41143); assay: SAR Analysis of Agonists of the DOR Receptor using an Image-Based Assay - Set 3. [Related pubchem assays (depositor defined):AID1777, AID1786]; type: functional
Mu-type opioid receptor = Mu-type opioid receptor (Homo sapiens, UniProt P35372); assay: SAR Analysis of Agonists of the MOR Receptor using an Image-Based Assay - Set 3. [Related pubchem assays (depositor defined):AID1777, AID1785, AID1786, AID1966, AID2133, AID2136, AID2284, AID2285, AID2352]; type: functional
[20] = target: T7, Kappa-type opioid receptor; assay: SAR analysis of small molecule agonists of the kappa opioid receptor via a luminescent beta-arrestin assay - Set 3. [Related pubchem assays (depositor defined):AID1777, AID1785, AID1786, AID1966, AID2133, AID2136, AID2284, AID2500]; type: functional
[21] = cytotoxicity toward NIH3T3 fibroblasts, dose response, counter-screen, cell-based, ATP luminescence, mouse fibroblasts (AID 2010); type: functional;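 note: cells exposed to compound for about 90 hours before reading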
Exodeoxyribonuclease V = Exodeoxyribonuclease V (Escherichia coli (strain K12), UniProt P04993+P07648+P08394); assay: E. coli RecBCD inhibitors, dose response, counter-screen for AddAB inhibitor project, absorbance, V66 E. coli, mutant T4 phage (AID 492957); type: functional, cell-based, Escherichia coli str. K-12 substr. MG1655
[22] = Counterscreen for AddAB inhibitors: absorbance-based bacterial cell-based high throughput dose response assay for inhibitors of bacterial viability. [Related pubchem assays (depositor defined):AID435030, AID449728, AID449731, AID488942, AID488955, AID488956]; type: functional
[23] = inhibitors of intracellular T. cruzi replication, confirmation, NIH3T3 host cells, beta-gal luminescence (AID 2044); type: functional, cell-based;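 note: intracellular parasites grown in NIH/3T3 mouse fibroblasts as host cells; luminescent beta-galactosidase reporter signal from transgenic T. cruzi replicating inside host cells; inhibitors lower the luminescence signal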
Vero = assay: cells; type: functional; conditions: Chlorocebus sabaeus

T1 sequence (Q9UBE0 whole entry): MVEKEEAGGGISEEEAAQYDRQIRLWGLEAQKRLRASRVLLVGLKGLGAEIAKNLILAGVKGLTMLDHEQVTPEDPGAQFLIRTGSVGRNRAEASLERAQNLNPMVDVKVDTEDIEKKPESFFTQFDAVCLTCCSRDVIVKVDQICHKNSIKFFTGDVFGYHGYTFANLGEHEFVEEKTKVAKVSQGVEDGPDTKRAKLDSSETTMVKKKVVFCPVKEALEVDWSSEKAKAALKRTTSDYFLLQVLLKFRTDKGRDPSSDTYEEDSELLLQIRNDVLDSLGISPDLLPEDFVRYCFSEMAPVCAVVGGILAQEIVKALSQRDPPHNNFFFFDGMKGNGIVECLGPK
T1 sequence (Q9UBT2 whole entry): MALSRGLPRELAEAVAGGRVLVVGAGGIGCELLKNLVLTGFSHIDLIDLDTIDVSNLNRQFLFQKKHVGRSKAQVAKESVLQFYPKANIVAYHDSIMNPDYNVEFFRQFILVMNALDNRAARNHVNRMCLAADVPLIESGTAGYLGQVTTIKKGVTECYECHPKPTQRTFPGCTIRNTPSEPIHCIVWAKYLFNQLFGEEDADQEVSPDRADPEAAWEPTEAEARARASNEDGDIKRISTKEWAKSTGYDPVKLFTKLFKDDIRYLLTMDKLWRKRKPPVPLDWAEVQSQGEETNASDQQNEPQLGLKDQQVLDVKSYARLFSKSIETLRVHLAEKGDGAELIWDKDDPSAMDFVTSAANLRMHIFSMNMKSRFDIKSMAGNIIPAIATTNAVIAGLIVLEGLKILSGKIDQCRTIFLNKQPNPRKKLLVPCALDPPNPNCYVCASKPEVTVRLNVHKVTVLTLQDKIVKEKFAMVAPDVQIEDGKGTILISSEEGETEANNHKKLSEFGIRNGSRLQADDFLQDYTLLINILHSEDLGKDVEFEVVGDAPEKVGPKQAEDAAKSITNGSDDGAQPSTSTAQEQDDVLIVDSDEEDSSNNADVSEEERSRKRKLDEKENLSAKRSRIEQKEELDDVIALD

SMILES: CCOc1ccc(/C=C2/SC(=S)N(CCC(=O)Nc3ccc(C(=O)O)cc3)C2=O)cc1
- IC50 (SUMO-activating enzyme [1]): 23.6 µM (active)
- EC50 (Hexokinase HKDC1): > 80 µM (inactive)
- IC50 (SUMO-activating enzyme [2]): 16.8 µM (active)
- IC50 [3]: > 50 µM (inactive)
- IC50 [4]: 5.5 µM (active)

SMILES: S=C(NCCC(c1ccccc1)c1ccccc1)Nc1ccc(Cl)cc1
- IC50 [5]: > 100 µM (inactive)
- IC50 [6]: 9.61 µM (active)
- IC50 [7]: > 100 µM (inactive)

SMILES: COc1ccc(-c2cc(N)n(S(=O)(=O)c3ccc(Cl)cc3)n2)cc1OC
- IC50 (Tumor necrosis factor): > 20 µM (inactive)
- IC50 (HEK293): > 20 µM (inactive)
- IC50 [8]: > 20 µM (inactive)
- IC50 [9]: > 20 µM (inactive)
- IC50 (Bcl-2-related protein A1 [10]): > 100 µM (not active)
- IC50 [11]: > 100 µM (not active)
- IC50 (Bcl-2-related protein A1 [12]): > 100 µM (not active)

SMILES: Cc1ccc(NC(=O)Cn2c(O)c(N=NC(=O)c3cc([N+](=O)[O-])ccc3O)c3ccccc32)cc1
- IC50 [13]: 12.9 µM (active)
- IC50 [14]: 6.94 µM (active)
- IC50 [15]: 31 µM (active)

SMILES: CC(C)CCN1CCC[C@H](NC(=O)COc2ccc(F)c(Cl)c2)C1
- EC50 [16]: 10 µM (active)

SMILES: CC(=O)N(C)c1ccc(NC(=O)/C=C/c2ccccc2Cl)cc1
- AC50 [17]: > 350 µM (inactive)
- AC50 (CAAX prenyl protease 2): 2.06 µM (active)

SMILES: FC(F)(F)c1ccc(CSc2nnc(-c3ccccn3)n2Cc2ccco2)cc1
- EC50 [18]: 1.22 µM (active)
- EC50 [19]: > 64 µM (inactive)
- EC50 (Mu-type opioid receptor): > 32 µM (inactive)
- EC50 [20]: 2.77 µM (active)

SMILES: O=C(NCc1ccco1)c1ccc([N+](=O)[O-])o1
- EC50 [21]: > 60 µM (not active)
- IC50 (Exodeoxyribonuclease V): 113 µM (inactive)
- IC50 [22]: > 39.5 µM (inactive)
- EC50 [23]: 0.128 µM (active)
- IC50 [3]: 34.6 µM (active)
- CC50 (Vero): 22.8 µM (active)
- IC50 [4]: 4.6 µM (active)
